Literature values as cited in patent US20250288631A1, “PHYTOTHERAPY FORMULATION FOR SEXUAL DYSFUNCTIONS” (priority 2022, published 2025).

Settings: EFSA (2015)

- EFSA classification: class III
- Exposure limit (class III, 60 kg person): 90 µg/person/day
Compound: C/C=C/C=C\CC/C=C/C(=O)NCC(C)C [spilanthol]
